Laboratory results published in patent US8216975B2, “Method of labelling soya varieties” (priority 2004, dated 2012).

Tests used:
soybean varieties = assay: Greenhouse pot test: soybean varieties sown in soil treated with HPPD inhibitor, ED20 and factor versus reference variety; format: in vivo, Glycine max
Protocol: Test Method for the Selection of Suitable Soybean Varieties: Categorisation of the Soybean Varieties According to Their Sensitivity to HPPD Herbicide Residues and Comparison with Sensitive and Non-Sensitive Soybean Varieties:
• 1. A non-sterilised soil is treated with the HPPD inhibitor being tested. The HPPD inhibitor being tested is applied in concentrations of 0, 20, 40 and 80 ppb and incorporated homogeneously into the soil. The soil so treated is then introduced into pots (2⅝ inch×2⅝ inch×3½ inch) and lightly firmed. • 2. Sowing: The soybean varieties being tested are sown in the pots treated as described above as follows: 3 seed grains are used per pot, the seeds being pressed lightly into the soil (under the surface of the soil) and covered over with soil. In each test, varieties having known sensitivity are also tested as reference. These are the soybean varieties NK S40-R9 and Pioneer P94B01. Shortly after germination, the plants are thinned out to two plants per pot. The plants receive an optimum supply of water and nutrients and are kept in a greenhouse at 20-24° C., with 16 hours exposure to light per day. • 3. 3-4 Weeks after sowing, the condition of the plants is evaluated visually. Symptoms of damage to the plants, such as chlorosis, bleaching and growth inhibition (‘stunting’), are assessed and compared with an untreated soya plant of the same variety. • 4. Calculation: The repetitions are combined and a linear regression analysis is carried out with non-transformed data. ED20 values (=effective dose at which damage is 20% in comparison with the untreated control) are calculated from the regression curve for each variety. The soybeans are grouped according to whether they are “sensitive” or “tolerant” by comparing the ED20 values of the test varieties with those of the standard varieties, that is to say by determining a factor with respect to the reference variety.

[1] = system: soya varieties S40R-9 and S24-K4; assay: Field carry-over test: phytotoxicity to soya grown as subsequent crop to maize treated with HPPD herbicide; format: in vivo, Glycine max
Source text: Biological Test Method for the Selection of Suitable Sensitive Reference Soybean Varieties in the Field:
• a) Compound No. 2.13 according to Table 2 below was applied pre- or post-emergence to maize in three repetitions in a field in the vicinity of Ames, Iowa, USA, under practical conditions at a suitable time (pre-emergence April-May; post-emergence May-June) in a field trial using concentrations of 100, 200 and 400 g a.i./ha. Application of fertilizer, pest control and other cultivation measures were carried out in accordance with the standards customary in agriculture. Because not all weeds were controlled by the test herbicides, the test plots were kept weed-free over the entire vegetation period by the application of non-soil-active herbicides. • b) The plots were harvested and labeled in the autumn. At the customary time in […] (April/May) of the following year, the soybeans to be tested were sown in the labeled plots from the previous year and the condition of the plants on reaching the different physiological growth stages was evaluated (see Table 1). • c) The evaluation was carried out in % general phytotoxicity, which records any effects such as growth inhibition, bleaching, chlorosis, scorching or thinning. 0-4% phytotoxicity is acceptable, >4% is not acceptable under practical field conditions.
Tables A and B: Phytotoxicity of the soya varieties S40R-9 and S24-K4 as a subsequent crop to maize in which weed control has been carried out using the herbicide of formula 2.13. The herbicide was applied in an amount of 400 g/ha; in Table B an oil adjuvant (Agridex) was additionally used in an amount of 1.25% by volume.

How did the “Factor with respect to reference variety NK S40-R9, based on ED20 values” (“Factor” for short) (soybean varieties; Table D, soya variety S21-H7 STS) turn out when `CS(=O)(=O)c1ccc(C(=O)C2C(=O)CCCC2=O)c([N+](=O)[O-])c1` [2.04, reference compound] was run?
Its value is 3.45.

What about the “Factor” value (soybean varieties; Table D, soya variety S34-A9 STS) of the same compound?
The value was 4.56.

What about the “Factor” value (soybean varieties; Table D, soya variety S40-R9 (reference variety)) of the same compound?
The value was 1.0.

With `COCCOCc1nc(C(F)(F)F)ccc1C(=O)C1=C(O)C2CCC(C2)C1=O` (stereo not drawn) [Compound No. 2.13] as the compound, how does the “% Phytotoxicity (mean value)” value ([1]; Table A, soya variety NK S40-R9, 400 g/ha on maize, 29 days after sowing, 404 days after herbicide application, BBCH12/BBCH13) read?
Its value is 6.67%.

What about the “% Phytotoxicity (mean value)” value ([1]; Table A, soya variety NK S40-R9, 400 g/ha on maize, 42 days after sowing, 417 days after herbicide application, BBCH14/BBCH14) of the same compound?
The value was 13%.

What about the “% Phytotoxicity (mean value)” value ([1]; Table A, soya variety NK S40-R9, 400 g/ha on maize, 56 days after sowing, 431 days after herbicide application, BBCH16/BBCH17) of the same compound?
The value was 14.33%.

And the “% Phytotoxicity (mean value)” value ([1]; Table A, soya variety NK-S24-K4, 400 g/ha on maize, 29 days after sowing, 404 days after herbicide application, BBCH12/BBCH13)?
Its value is 0%.

What about the “% Phytotoxicity (mean value)” value ([1]; Table A, soya variety NK-S24-K4, 400 g/ha on maize, 42 days after sowing, 417 days after herbicide application, BBCH14/BBCH14) of the same compound?
Its value is 0%.

And the “% Phytotoxicity (mean value)” value ([1]; Table A, soya variety NK-S24-K4, 400 g/ha on maize, 56 days after sowing, 431 days after herbicide application, BBCH16/BBCH17)?
Its value is 0%.

And the “% Phytotoxicity (mean value)” value ([1]; Table B, soya variety NK S40-R9, 400 g/ha on maize plus oil adjuvant (Agridex) 1.25% by volume, 29 days after sowing, 404 days after herbicide application, BBCH12/BBCH13)?
Its value is 36.67%.

And the “% Phytotoxicity (mean value)” value ([1]; Table B, soya variety NK S40-R9, 400 g/ha on maize plus oil adjuvant (Agridex) 1.25% by volume, 42 days after sowing, 417 days after herbicide application, BBCH14/BBCH14)?
Its value is 49.33%.

And the “% Phytotoxicity (mean value)” value ([1]; Table B, soya variety NK S40-R9, 400 g/ha on maize plus oil adjuvant (Agridex) 1.25% by volume, 56 days after sowing, 431 days after herbicide application, BBCH16/BBCH17)?
The value was 56.67%.

What about the “% Phytotoxicity (mean value)” value ([1]; Table B, soya variety NK-S24-K4, 400 g/ha on maize plus oil adjuvant (Agridex) 1.25% by volume, 29 days after sowing, 404 days after herbicide application, BBCH12/BBCH13) of the same compound?
The value was 5.67%.

What about the “% Phytotoxicity (mean value)” value ([1]; Table B, soya variety NK-S24-K4, 400 g/ha on maize plus oil adjuvant (Agridex) 1.25% by volume, 42 days after sowing, 417 days after herbicide application, BBCH14/BBCH14) of the same compound?
The value was 3.33%.

And the “% Phytotoxicity (mean value)” value ([1]; Table B, soya variety NK-S24-K4, 400 g/ha on maize plus oil adjuvant (Agridex) 1.25% by volume, 56 days after sowing, 431 days after herbicide application, BBCH16/BBCH17)?
The value was 1.67%.

What about the “Factor” value (soybean varieties; soya variety AGI 7370 RR) of the same compound?
Its value is 1.0.

And the “Factor” value (soybean varieties; soya variety Agripro 2502 RR)?
The value was 5.3.

And the “Factor” value (soybean varieties; soya variety Agripro 2547 RR/N)?
Its value is 4.7.

What about the “Factor” value (soybean varieties; soya variety Agway APK 190) of the same compound?
Its value is 12.2.

What about the “Factor” value (soybean varieties; soya variety Agway APK256 RR) of the same compound?
Its value is 5.6.

And the “Factor” value (soybean varieties; soya variety Asgrow 1602)?
The value was 5.4.

What about the “Factor” value (soybean varieties; soya variety Asgrow 2105) of the same compound?
The value was 6.5.

What about the “Factor” value (soybean varieties; soya variety Asgrow 2705) of the same compound?
Its value is 5.0.

What about the “Factor” value (soybean varieties; soya variety Asgrow AG1401 RR) of the same compound?
Its value is 4.5.

What about the “Factor” value (soybean varieties; soya variety Asgrow AG2302) of the same compound?
The value was 4.7.

And the “Factor” value (soybean varieties; soya variety Asgrow AG3902)?
The value was 4.7.

What about the “Factor” value (soybean varieties; soya variety Asgrow AG4403) of the same compound?
The value was 8.5.

And the “Factor” value (soybean varieties; soya variety Beck's 336NRR)?
The value was 4.5.

And the “Factor” value (soybean varieties; soya variety Beck's 366NRR)?
Its value is 4.9.

What about the “Factor” value (soybean varieties; soya variety D King 4868RR) of the same compound?
The value was 4.4.

And the “Factor” value (soybean varieties; soya variety Dekalb DK32-51)?
Its value is 5.3.

What about the “Factor” value (soybean varieties; soya variety Dekalb DKB23-51) of the same compound?
Its value is 5.8.

What about the “Factor” value (soybean varieties; soya variety Dekalb DKB36-51) of the same compound?
The value was 4.2.

And the “Factor” value (soybean varieties; soya variety Garst 2677 RR)?
The value was 4.1.

And the “Factor” value (soybean varieties; soya variety Gld H H3505RR)?
Its value is 5.8.

And the “Factor” value (soybean varieties; soya variety Kruger 279 RR)?
Its value is 3.4.

And the “Factor” value (soybean varieties; soya variety Kruger 323 RR)?
The value was 4.3.

What about the “Factor” value (soybean varieties; soya variety MFA RT 3660N) of the same compound?
Its value is 4.3.

What about the “Factor” value (soybean varieties; soya variety Mustang M-222RR) of the same compound?
Its value is 0.8.

What about the “Factor” value (soybean varieties; soya variety NK S24-K4) of the same compound?
Its value is 3.6.

What about the “Factor” value (soybean varieties; soya variety NK S35-A6) of the same compound?
The value was 5.3.

What about the “Factor” value (soybean varieties; soya variety NK S40-R9 (reference variety)) of the same compound?
Its value is 1.0.

And the “Factor” value (soybean varieties; soya variety NK S46-W8)?
Its value is 0.5.

And the “Factor” value (soybean varieties; soya variety Pioneer 90B51)?
The value was 1.1.

And the “Factor” value (soybean varieties; soya variety Pioneer 91B33)?
Its value is 4.9.

What about the “Factor” value (soybean varieties; soya variety Pioneer 91B91) of the same compound?
Its value is 3.0.

What about the “Factor” value (soybean varieties; soya variety Pioneer 93B67) of the same compound?
The value was 1.1.

And the “Factor” value (soybean varieties; soya variety Pioneer 94B01)?
The value was 0.8.

What about the “Factor” value (soybean varieties; soya variety Pioneer 94B54) of the same compound?
Its value is 1.6.

What about the “Factor” value (soybean varieties; soya variety Pioneer 9492) of the same compound?
Its value is 1.0.

And the “Factor” value (soybean varieties; soya variety Pioneer P92B38)?
The value was 4.3.

What about the “Factor” value (soybean varieties; soya variety S21-H7 STS) of the same compound?
Its value is 5.03.

What about the “Factor” value (soybean varieties; soya variety S34-A9 STS) of the same compound?
The value was 8.0.

And the “Factor” value (soybean varieties; soya variety S. Grow SG948RR)?
The value was 1.2.
